According to PubChem BioAssay (NCI):
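Results reflect a 48-hour exposure of cells in 96-well plates to compound at five concentrations. GI50 is the concentration that inhibits growth by half. At the TGI there is no net growth.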

Tests used:
Assay in all cases: NCI tumour cell line growth inhibition, 48 h
CAKI-1 renal = tested on: CAKI-1 renal
SK-MEL-5 melanoma = tested on: SK-MEL-5 melanoma
SN12C renal = tested on: SN12C renal
SK-MEL-2 melanoma = tested on: SK-MEL-2 melanoma
COLO 205 colon = tested on: COLO 205 colon
HOP-62 NSCLC = tested on: HOP-62 NSCLC
SK-OV-3 ovarian = tested on: SK-OV-3 ovarian
SF-295 CNS = tested on: SF-295 CNS
HCC-2998 colon = tested on: HCC-2998 colon
LOX IMVI melanoma = tested on: LOX IMVI melanoma

Compound	GI50 (CAKI-1 renal)	TGI (CAKI-1 renal)	GI50 (SK-MEL-5 melanoma)	TGI (SK-MEL-5 melanoma)	GI50 (SN12C renal)	TGI (SN12C renal)	GI50 (SK-MEL-2 melanoma)	TGI (SK-MEL-2 melanoma)	GI50 (COLO 205 colon)	TGI (COLO 205 colon)	GI50 (HOP-62 NSCLC)	TGI (HOP-62 NSCLC)	GI50 (SK-OV-3 ovarian)	TGI (SK-OV-3 ovarian)	GI50 (SF-295 CNS)	TGI (SF-295 CNS)	GI50 (HCC-2998 colon)	TGI (HCC-2998 colon)	GI50 (LOX IMVI melanoma)	TGI (LOX IMVI melanoma)
CCN(CC)C(=S)[S][Bi]([S]C(=S)N(CC)CC)[S]C(=S)N(CC)CC	0.199 µM	0.776 µM	0.634 µM	1.7 µM	0.264 µM	0.696 µM	0.3 µM	0.774 µM	< 0.0208 µM	0.131 µM	1.9 µM	3.39 µM	1.74 µM	3.14 µM	1.73 µM	3.16 µM	1.6 µM	3.02 µM	0.261 µM	0.745 µM
N#CC1C=Cc2c(ccc3ccccc23)N1C(=O)c1ccccc1 (centres undefined)	0.108 µM	–	0.132 µM	> 42.5 µM	1.15 µM	> 100 µM	4.61 µM	> 60.7 µM	0.251 µM	0.706 µM	0.387 µM	> 100 µM	0.311 µM	29.7 µM	0.0268 µM	0.0747 µM	0.43 µM	> 47.6 µM	0.319 µM	> 100 µM
Nc1ncc(-c2cccc(S(N)(=O)=O)c2)c2scc(-c3ccc(F)c(Cl)c3)c12	5.51 µM	21.4 µM	4 µM	7.46 µM	5.74 µM	> 23.2 µM	5.88 µM	10.9 µM	5.92 µM	11.8 µM	5.47 µM	12.6 µM	5.14 µM	> 17.6 µM	5.66 µM	13.8 µM	6.7 µM	13.3 µM	4.84 µM	9.67 µM
C[C@@H](Nc1nc(Nc2ccc(F)c(Cl)c2)nc2ccccc12)C1CC1	3.18 µM	15.7 µM	1.55 µM	2.96 µM	3.25 µM	14.4 µM	5.88 µM	24.9 µM	1.71 µM	3.46 µM	11.2 µM	25 µM	5.36 µM	17.3 µM	1.88 µM	8.92 µM	2.27 µM	6.46 µM	1.68 µM	3.25 µM
C[C@@H]1COCCN1c1cc(C2(O)C[C@H]3CC[C@@H](C2)O3)c2cnn(-c3ccn[nH]3)c2n1 (some centres undefined)	0.0685 µM	0.627 µM	0.107 µM	0.279 µM	0.143 µM	4.09 µM	0.0304 µM	0.202 µM	0.253 µM	2.52 µM	0.0786 µM	1.41 µM	0.0992 µM	4.03 µM	0.0329 µM	0.308 µM	< 0.0113 µM	0.229 µM	0.0246 µM	0.145 µM
Cc1ccc(-c2cc(O)c(-c3ccc(C)cc3C)cc2O)c(C)c1	3.41 µM	34.3 µM	1.11 µM	10.2 µM	5.38 µM	18.8 µM	15.4 µM	30.1 µM	10.2 µM	24.6 µM	11.2 µM	25.9 µM	11 µM	27.3 µM	6.96 µM	36.1 µM	9.37 µM	21.9 µM	1.92 µM	17.2 µM
